Laboratory results published in patent US8048840B2, “Ether compound” (Kao Corporation, priority 2007, dated 2011).

Assay: Emulsification of a mixture of water and oil
Assay type: physicochemical
Conditions: with addition of the compound
Description: Therefore, it is understood that the novel ether compound of the present invention has good water-solubility. It was confirmed that a mixture of water and oil was emulsified with addition of the compound a1-1.

emulsification of a mixture of water and oil: emulsified
Substance: dendrimer type tetraglycidyl polylauryl ether [a1-1]
